Source: ChEMBL document CHEMBL1201862, “PubChem BioAssay data set” (2004)
Calls of active or inactive are those of the source.

Legend:
Mu-type opioid receptor = Mu-type opioid receptor (Homo sapiens, UniProt P35372); assay type: functional, cell-based;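 note: U2OS cells with beta-arrestin recruitment to OPRM1 by beta-gal complementation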
[1] = target: 5-hydroxytryptamine receptor 2A (Mus musculus, UniProt P35363); assay type: functional, cell-based;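 note: CHO-K1 cells with tagged receptor and beta-arrestin; agonist potency measured as compound-induced activation of the receptor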
5-hydroxytryptamine receptor 2A, sequence (P35363 whole entry, the tested form may be a part): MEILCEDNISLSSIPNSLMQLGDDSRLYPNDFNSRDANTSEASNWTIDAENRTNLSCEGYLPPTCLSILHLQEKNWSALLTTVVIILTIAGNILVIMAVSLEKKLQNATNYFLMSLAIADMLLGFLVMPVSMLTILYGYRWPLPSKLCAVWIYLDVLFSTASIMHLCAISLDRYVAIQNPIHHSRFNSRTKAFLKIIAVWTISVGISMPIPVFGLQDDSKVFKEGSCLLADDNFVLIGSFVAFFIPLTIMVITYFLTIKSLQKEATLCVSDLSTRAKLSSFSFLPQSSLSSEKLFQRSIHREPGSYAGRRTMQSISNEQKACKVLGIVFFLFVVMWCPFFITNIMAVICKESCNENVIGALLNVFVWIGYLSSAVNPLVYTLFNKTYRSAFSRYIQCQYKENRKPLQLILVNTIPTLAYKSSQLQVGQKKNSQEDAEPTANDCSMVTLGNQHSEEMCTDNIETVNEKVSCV

[2] = blockers of HIV-1 envelope-mediated cell-cell fusion – cherry-pick, dose response (AID 652057); assay type: functional, cell-based
[3] = HIV-1 AD8 envelope cell-cell fusion blockers – cherry-pick, dose response (AID 652062); assay type: functional, cell-based;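 note: luciferase signal from cell-cell fusion driven by HIV-1 clade B AD8 Env; potency is for inhibitors of fusion seen as a drop in luminescence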
[4] = blockers of HIV-1 ZM109 envelope-driven cell-cell fusion – HeLa effector, CEM target cells, luciferase, cherry-pick, dose response (AID 652058); assay type: functional, cell-based;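 note: luciferase signal from HIV-1 Env mediated cell-cell fusion of effector and target cells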
[5] = off-target signal loss in HeLa-CEM21 co-culture – HeLa F-luc CTL cells, cherry-picked, counter-screen for HIV-1 Env fusion inhibitor project, dose response (AID 652040); assay type: functional, cell-based;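 note: potency for signal decrease marking cytotoxic or nonspecific inhibition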
[6] = HPDE-C7 pancreatic duct cell viability loss – fluorescence, HTS (AID 430); assay type: functional, cell-based; conditions: Homo sapiens
Large T antigen = Large T antigen (Simian virus 40, UniProt P03070); assay type: functional, Betapolyomavirus macacae;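 note: Confirmatory-stage PubChem screen for compounds that inhibit SV40 T antigen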
Large T antigen, sequence (P03070 whole entry): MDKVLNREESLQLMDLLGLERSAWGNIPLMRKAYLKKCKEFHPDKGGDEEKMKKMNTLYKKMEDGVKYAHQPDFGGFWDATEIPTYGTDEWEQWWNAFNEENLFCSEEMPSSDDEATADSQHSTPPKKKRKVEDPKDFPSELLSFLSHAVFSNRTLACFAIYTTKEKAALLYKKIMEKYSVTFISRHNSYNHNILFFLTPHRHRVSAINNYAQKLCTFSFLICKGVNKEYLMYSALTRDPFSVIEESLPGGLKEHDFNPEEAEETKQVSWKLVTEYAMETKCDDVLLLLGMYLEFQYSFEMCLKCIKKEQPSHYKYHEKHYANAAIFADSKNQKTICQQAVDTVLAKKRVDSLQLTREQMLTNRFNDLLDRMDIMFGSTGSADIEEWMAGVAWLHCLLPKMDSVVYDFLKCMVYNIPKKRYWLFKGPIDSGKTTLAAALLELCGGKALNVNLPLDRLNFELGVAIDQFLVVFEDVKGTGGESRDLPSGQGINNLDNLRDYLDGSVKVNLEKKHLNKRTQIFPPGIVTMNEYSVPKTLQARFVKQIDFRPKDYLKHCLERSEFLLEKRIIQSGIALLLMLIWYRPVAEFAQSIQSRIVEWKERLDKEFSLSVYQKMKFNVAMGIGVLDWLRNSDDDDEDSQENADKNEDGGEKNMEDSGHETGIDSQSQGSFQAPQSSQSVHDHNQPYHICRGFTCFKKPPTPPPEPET

[7] = NIH3T3 cell viability loss – ATP luminescence, mouse fibroblasts, counter-screen, dose response (AID 2010); assay type: functional, cell-based;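 note: cells exposed to compound for about 90 hours before reading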
[8] = Trypanosoma cruzi growth suppression in host cells – NIH3T3 host cells, beta-gal luminescence, confirmation (AID 2044); assay type: functional, cell-based;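 note: intracellular parasites grown in NIH/3T3 mouse fibroblasts as host cells; luminescent beta-galactosidase reporter signal from transgenic T. cruzi replicating inside host cells; inhibitors lower the luminescence signal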
[9] = viability loss of HPDE-C7K cells – cell-based, fluorescence, HTS, primary screen (AID 431); assay type: functional; conditions: Homo sapiens
[10] = OVCAR8 cell viability loss – plate reader, dry powder samples, PAX8 project, dose response (AID 743197); assay type: functional, cell-based; conditions: OVCAR-8
[11] = OVCAR-3 cell viability loss – plate reader, dry powder samples, PAX8 inhibitor project, dose response (AID 743044); assay type: functional, cell-based
Paired box protein Pax-8 = Paired box protein Pax-8 (Homo sapiens, UniProt Q06710); assay: PAX8 transcriptional activity inhibition in RMG-I – RMG-I cells, luciferase, cherry-pick, dose response (AID 687027); assay type: functional, cell-based;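 note: luciferase reporter driven by Pax8 target thyroperoxidase promoter measured by SteadyGlo luminescence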
Paired box protein Pax-8, sequence (Q06710 whole entry): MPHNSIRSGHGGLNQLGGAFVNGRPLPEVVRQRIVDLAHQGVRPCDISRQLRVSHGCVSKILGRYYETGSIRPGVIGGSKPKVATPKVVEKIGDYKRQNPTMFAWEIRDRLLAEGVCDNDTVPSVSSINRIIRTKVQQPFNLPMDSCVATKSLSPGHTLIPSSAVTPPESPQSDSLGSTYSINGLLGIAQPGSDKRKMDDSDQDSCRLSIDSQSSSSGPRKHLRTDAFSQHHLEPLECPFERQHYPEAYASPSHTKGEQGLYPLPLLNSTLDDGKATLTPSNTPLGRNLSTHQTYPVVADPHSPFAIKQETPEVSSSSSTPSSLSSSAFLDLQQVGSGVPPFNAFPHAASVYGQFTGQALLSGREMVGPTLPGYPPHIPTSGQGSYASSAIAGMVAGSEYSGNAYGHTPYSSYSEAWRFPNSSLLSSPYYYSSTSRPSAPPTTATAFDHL

[12] = IGROV1 cell killing – plate reader, dry powder samples, PAX8 inhibitor project, dose response (AID 743043); assay type: functional, cell-based; conditions: IGROV-1
[13] = target: T1, Low molecular weight phosphotyrosine protein phosphatase (Homo sapiens, UniProt P24666); assay type: functional; conditions: read-out: IC50_Mean;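 note: Dose-response confirmation assay measuring inhibition of LMPTP enzyme activity by fluorescence intensity read-out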
T1 sequence (P24666 whole entry): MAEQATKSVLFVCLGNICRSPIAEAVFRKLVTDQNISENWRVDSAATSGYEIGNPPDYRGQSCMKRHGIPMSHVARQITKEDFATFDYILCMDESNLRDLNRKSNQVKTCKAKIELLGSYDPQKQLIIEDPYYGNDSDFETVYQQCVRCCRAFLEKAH

Prothrombin = Prothrombin (Homo sapiens, UniProt P00734); assay: Thrombin 1536 HTS Dose Response Confirmation. [Related pubchem assays: 1046 (Thrombin 1536 HTS; hits were confirmed in this assay)]; assay type: functional
HEK293 = assay: EBV LMP1 TES2 canonical NF-kB signalling blockers – cell-based, HEK293, luciferase, cherry-pick, dose response (AID 588343); assay type: functional; conditions: Homo sapiens
Beta-galactosidase = Beta-galactosidase (Escherichia coli, UniProt Q8VNN2); assay: Dose response counterscreen for EBI2 assay utilizing the enzyme, b-galactosidase.; assay type: functional
Beta-galactosidase, sequence (Q8VNN2 whole entry): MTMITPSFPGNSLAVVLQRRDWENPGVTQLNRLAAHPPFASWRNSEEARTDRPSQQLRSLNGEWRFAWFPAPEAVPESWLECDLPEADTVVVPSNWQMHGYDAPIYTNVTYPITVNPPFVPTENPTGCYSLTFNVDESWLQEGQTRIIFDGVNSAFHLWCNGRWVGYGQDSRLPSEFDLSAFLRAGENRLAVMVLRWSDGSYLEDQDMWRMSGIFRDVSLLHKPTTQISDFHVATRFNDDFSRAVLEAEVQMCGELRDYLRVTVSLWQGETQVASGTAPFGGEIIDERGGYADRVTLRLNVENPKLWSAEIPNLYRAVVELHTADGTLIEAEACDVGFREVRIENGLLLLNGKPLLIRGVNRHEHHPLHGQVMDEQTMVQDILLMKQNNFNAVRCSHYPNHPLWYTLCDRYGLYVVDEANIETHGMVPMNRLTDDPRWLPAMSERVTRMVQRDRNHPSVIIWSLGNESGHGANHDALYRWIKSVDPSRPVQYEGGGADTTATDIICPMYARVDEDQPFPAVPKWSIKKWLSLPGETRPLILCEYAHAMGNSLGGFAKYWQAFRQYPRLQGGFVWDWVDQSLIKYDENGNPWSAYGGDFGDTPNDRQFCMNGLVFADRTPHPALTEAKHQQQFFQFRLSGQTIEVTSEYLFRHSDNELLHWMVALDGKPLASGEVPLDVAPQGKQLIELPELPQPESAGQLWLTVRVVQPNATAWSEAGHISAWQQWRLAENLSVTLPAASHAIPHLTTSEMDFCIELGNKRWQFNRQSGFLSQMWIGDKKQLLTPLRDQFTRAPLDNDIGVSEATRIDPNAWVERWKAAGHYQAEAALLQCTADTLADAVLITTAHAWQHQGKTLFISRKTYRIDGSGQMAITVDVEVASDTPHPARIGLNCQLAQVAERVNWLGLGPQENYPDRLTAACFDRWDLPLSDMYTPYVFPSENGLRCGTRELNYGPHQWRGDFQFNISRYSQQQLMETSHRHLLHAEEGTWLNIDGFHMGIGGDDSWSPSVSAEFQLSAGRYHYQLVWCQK

[14] = Luminescence Cell-Based Dose Retest to Confirm Inhibitors of Cancer Stem Cells. [Related pubchem assays (depositor defined):AID2717, AID2721]; assay type: functional; conditions: Homo sapiens
[15] = target: Glucose-6-phosphate 1-dehydrogenase (Homo sapiens, UniProt P11413); assay: inhibition of Homo sapiens G6PD, dose series – biochemical, fluorescence, selectivity assay for P. falciparum G6PD inhibitor project, dose response (AID 504792); assay type: functional
Glucose-6-phosphate 1-dehydrogenase, sequence (P11413 whole entry): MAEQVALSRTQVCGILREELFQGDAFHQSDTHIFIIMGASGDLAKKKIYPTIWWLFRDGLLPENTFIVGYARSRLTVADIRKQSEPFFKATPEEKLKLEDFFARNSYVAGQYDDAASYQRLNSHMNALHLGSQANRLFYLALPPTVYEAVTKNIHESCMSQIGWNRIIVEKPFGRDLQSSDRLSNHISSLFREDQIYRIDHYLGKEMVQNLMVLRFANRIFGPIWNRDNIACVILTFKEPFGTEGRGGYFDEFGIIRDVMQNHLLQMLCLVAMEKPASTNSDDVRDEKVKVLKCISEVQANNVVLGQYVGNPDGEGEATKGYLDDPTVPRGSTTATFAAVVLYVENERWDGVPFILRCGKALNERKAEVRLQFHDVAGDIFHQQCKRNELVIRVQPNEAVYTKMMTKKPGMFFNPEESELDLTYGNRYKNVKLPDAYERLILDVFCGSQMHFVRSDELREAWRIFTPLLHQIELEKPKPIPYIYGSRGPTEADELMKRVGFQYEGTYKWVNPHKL

Mu-type opioid receptor, sequence (P35372 whole entry): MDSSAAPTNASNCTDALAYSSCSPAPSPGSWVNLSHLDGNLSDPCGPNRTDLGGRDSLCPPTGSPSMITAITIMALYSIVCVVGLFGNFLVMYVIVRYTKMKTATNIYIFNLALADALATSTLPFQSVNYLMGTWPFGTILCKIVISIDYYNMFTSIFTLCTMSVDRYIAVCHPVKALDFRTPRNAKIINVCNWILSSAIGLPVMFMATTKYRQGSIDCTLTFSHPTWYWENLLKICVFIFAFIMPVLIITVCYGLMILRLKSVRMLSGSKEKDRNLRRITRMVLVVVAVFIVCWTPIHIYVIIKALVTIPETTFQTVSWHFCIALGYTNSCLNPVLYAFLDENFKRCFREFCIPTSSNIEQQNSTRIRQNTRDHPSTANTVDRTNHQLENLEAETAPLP

SMILES: CCC(c1nnnn1-c1c(C)cccc1C)N1CCN(C/C=C/c2ccccc2)CC1 (configuration not stated)
- EC50 (Mu-type opioid receptor): 92.6 µM (inactive)
- EC50 [1]: 0.362 µM (active)

SMILES: O=C(CN(Cc1ccccc1)S(=O)(=O)c1ccc(F)cc1)NCCC1=CCCCC1
- AC50 [2]: 2.55 µM (active)
- AC50 [3]: 38 µM (active)
- AC50 [4]: 6.77 µM (active)
- AC50 [5]: 17.1 µM (active)

SMILES: CC(=O)CC1OC(O)=C(Br)/C1=N/Cc1ccccc1 (configuration not stated)
- EC50 [6]: 7.33 µM (active)
- IC50 (Large T antigen): 41.6 µM (active)
- EC50 [7]: 4.68 µM (active)
- EC50 [8]: 0.808 µM (active)
- EC50 [9]: 9.82 µM (active)

SMILES: C[C@@H]1CCCCO[C@@H](CN(C)Cc2ccc(C(F)(F)F)cc2)[C@H](C)CN([C@H](C)CO)C(=O)c2cc(NS(=O)(=O)c3ccc(F)cc3)ccc2O1
- AC50 [10]: 40.3 µM (active)
- AC50 [11]: 25.2 µM (active)
- AC50 (Paired box protein Pax-8): 5.08 µM (active)
- AC50 [12]: 40 µM (active)

SMILES: CC(=Cc1ccccc1)C=C1SC(=S)N(CCCC(=O)Nc2ccc(C(=O)O)cc2)C1=O
- IC50 [13]: 80 µM (inactive)

SMILES: CSc1nc2cc3c(cc2n1C(=O)c1ccc(C)cc1)OCCO3
- IC50 (Prothrombin): 0.556 µM (active)
- AC50 (HEK293): > 350 µM (inactive)

SMILES: CCCCOC(=O)n1ccc(C(=O)Nc2ccccc2OC)n1
- IC50 (Prothrombin): 13.8 µM (active)

SMILES: CC(C)N1CCOC(c2ccc(O)c(O)c2)C1 (configuration not stated)
- EC50 (Mu-type opioid receptor): 92.3 µM (inactive)
- EC50 [1]: 1.68 µM (active)

SMILES: OC1(c2ccc(F)cc2)CCN(Cc2nnnn2Cc2cccs2)CC1
- IC50 (Prothrombin): > 50 µM (not active)

SMILES: CCN(CC)S(=O)(=O)c1cc(NC(=O)C(=O)c2c(-c3ccccc3)cc3ccccn23)ccc1C
- AC50 [2]: 10.6 µM (active)
- AC50 [3]: 17.1 µM (active)
- AC50 [4]: 24.9 µM (active)
- AC50 [5]: 9.48 µM (active)

SMILES: O=C(COc1ccc(Cl)cc1)N1CCN(Cc2ccc3c(c2)OCO3)CC1 [FIPEXIDE]
- IC50 (Beta-galactosidase): > 80 µM (inactive)

SMILES: CCOC(=O)N1CCN(C(=O)c2cc3cc(C)ccc3[nH]2)CC1
- IC50 (Beta-galactosidase): > 80 µM (inactive)

SMILES: Cc1cc(C)c(O)c(-c2[nH]nc3c2C(c2cccc(O)c2)N(Cc2ccco2)C3=O)c1 (configuration not stated)
- EC50 (Mu-type opioid receptor): 92.5 µM (inactive)
- EC50 [1]: 8.01 µM (active)
- AC50 [14]: 5.49 µM (active)

SMILES: COc1cccc(C(=O)Nc2nnc(S(=O)(=O)N(C)Cc3ccccc3)s2)c1
- IC50 [15]: > 80 µM (inactive)
